Measured values published in ChEMBL document CHEMBL5143564, “PES derivative PESA is a potent tool to globally profile cellular targets of PES” (Bioorg Med Chem Lett, 2022).
Active and inactive are the calls of the source.

What was measured:
[1] = system: DOHH-2; assay: Induction of apoptosis in human DOHH-2 cells assessed as increase in cleaved caspase-3 expression at 8 uM measured after 4 to 24 hrs by Western blot analysis; format: functional, cell-based; settings: time 4-24 hrs
[2] = target: Coronin-1A (Homo sapiens) (UniProt P31146); assay: Binding affinity to coronin-1A in human MDA-MB-453 cells measured after 6 hrs by pull-down assay; format: cell-based; settings: dose <= 20.0 µM, DDE = dose-dependent effect
Coronin-1A (Homo sapiens), sequence (P31146 whole entry): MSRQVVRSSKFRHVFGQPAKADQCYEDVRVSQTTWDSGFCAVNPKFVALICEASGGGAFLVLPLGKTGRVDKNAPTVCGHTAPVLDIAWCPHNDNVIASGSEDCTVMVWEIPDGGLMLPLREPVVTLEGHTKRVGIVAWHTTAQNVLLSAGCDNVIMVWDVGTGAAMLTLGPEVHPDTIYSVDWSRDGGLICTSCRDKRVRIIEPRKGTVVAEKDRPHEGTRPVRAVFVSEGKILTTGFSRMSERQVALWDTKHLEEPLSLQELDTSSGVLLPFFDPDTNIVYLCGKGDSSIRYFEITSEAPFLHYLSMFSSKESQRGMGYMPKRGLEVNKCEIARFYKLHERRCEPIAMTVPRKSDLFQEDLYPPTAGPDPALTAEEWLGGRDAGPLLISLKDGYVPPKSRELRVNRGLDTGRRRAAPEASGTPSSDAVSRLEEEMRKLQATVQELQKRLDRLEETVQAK

[3] = target: T1, Peroxiredoxin-5, mitochondrial (Homo sapiens) (UniProt P30044); assay: Binding affinity to PRDX5 in human DOHH-2 cells by MS analysis; format: cell-based
T1 sequence (whole entry): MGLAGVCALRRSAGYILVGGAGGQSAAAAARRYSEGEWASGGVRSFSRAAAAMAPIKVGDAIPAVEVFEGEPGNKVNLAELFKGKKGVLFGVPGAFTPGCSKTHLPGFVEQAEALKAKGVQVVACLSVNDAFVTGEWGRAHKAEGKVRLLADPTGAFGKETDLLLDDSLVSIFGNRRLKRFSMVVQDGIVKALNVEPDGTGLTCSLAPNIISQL

[4] = system: MDA-MB-453; assay: Cytotoxicity against human MDA-MB-453 cells measured after 72 hrs; format: functional, cell-based
[5] = target: T2, Peroxiredoxin-6 (Homo sapiens) (UniProt P30041); assay: Binding affinity to PRDX6 in human MDA-MB-453 cells measured after 6 hrs by pull-down assay; format: cell-based; settings: dose <= 20.0 µM, DDE = dose-dependent effect
T2 sequence (whole entry): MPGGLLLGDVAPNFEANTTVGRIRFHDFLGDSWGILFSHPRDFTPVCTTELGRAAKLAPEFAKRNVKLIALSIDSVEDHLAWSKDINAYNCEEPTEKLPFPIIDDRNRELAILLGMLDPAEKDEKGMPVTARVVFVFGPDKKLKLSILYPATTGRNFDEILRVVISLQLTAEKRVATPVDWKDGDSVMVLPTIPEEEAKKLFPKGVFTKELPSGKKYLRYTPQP

[6] = target: T3, Protein disulfide-isomerase A4 (Homo sapiens) (UniProt P13667); assay: Binding affinity to PDIA4 in human DOHH-2 cells measured after 6 hrs by pull-down assay; format: cell-based; settings: DDE = dose-dependent effect
T3 sequence (whole entry): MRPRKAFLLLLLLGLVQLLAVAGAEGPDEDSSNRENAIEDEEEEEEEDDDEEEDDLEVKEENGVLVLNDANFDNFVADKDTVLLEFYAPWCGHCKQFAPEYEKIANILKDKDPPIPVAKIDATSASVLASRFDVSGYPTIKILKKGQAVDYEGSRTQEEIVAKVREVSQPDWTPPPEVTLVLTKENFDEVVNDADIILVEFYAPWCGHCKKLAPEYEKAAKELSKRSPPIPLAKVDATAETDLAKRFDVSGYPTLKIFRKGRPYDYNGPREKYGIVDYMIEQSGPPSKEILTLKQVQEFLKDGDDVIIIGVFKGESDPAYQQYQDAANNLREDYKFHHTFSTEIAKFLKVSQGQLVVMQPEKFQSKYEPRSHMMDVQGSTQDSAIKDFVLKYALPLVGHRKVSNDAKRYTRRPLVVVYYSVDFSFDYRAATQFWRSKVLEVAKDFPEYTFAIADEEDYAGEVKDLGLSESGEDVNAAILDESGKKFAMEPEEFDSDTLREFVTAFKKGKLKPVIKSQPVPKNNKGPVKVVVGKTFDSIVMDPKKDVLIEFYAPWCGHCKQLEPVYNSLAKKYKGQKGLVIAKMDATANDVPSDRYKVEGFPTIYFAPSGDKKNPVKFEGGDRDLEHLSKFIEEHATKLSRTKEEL

[7] = target: T4, Peroxiredoxin-1 (Homo sapiens) (UniProt Q06830); assay: Binding affinity to PRDX1 in human DOHH-2 cells measured after 6 hrs by pull-down assay; format: cell-based; settings: DDE = dose-dependent effect
T4 sequence (whole entry): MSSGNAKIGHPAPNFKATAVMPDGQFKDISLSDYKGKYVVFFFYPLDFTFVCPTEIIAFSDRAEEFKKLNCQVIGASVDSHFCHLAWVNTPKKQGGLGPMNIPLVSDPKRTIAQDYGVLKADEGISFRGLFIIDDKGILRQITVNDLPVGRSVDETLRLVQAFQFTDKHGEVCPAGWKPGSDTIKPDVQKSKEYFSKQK

[8] = species on record: Homo sapiens; assay: Binding affinity to ADP-bound full-length human HSP70 assessed as Cys603 adduct formation by size exclusion chromatography
[9] = target: Glutathione S-transferase P (Homo sapiens) (UniProt P09211); assay: Binding affinity to GSTP1 in human DOHH-2 cells measured after 6 hrs by pull-down assay; format: cell-based; settings: DDE = dose-dependent effect
Glutathione S-transferase P (Homo sapiens), sequence (P09211 2-210 limits assumed): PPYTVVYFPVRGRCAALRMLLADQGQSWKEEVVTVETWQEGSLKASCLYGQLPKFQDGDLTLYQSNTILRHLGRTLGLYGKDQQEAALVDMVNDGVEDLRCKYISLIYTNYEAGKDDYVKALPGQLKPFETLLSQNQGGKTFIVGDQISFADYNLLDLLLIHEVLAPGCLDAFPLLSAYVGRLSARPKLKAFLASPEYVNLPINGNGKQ

[10] = target: T5, Glutathione S-transferase omega-1 (Homo sapiens) (UniProt P78417); assay: Binding affinity to GSTO1 in human MDA-MB-453 cells measured after 6 hrs by pull-down assay; format: cell-based; settings: dose <= 20.0 µM, DDE = dose-dependent effect
T5 sequence (whole entry): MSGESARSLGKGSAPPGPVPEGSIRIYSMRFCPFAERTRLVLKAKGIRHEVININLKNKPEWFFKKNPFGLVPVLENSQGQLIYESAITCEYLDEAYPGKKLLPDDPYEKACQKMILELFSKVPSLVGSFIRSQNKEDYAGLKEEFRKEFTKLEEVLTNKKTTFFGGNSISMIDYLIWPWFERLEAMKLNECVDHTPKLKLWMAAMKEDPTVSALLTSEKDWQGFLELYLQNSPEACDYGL

[11] = target: Tubulin alpha (Homo sapiens) (UniProt P0DPH7+P68366+Q71U36+P68363+Q9BQE3+Q6PEY2+A6NHL2+Q9NY65); assay: Binding affinity to alpha-tubulin in human DOHH-2 cells measured after 6 hrs by pull-down assay; format: cell-based; settings: DDE = dose-dependent effect
[12] = target: Tubulin beta (Homo sapiens) (UniProt P68371+Q9H4B7+Q13509+P04350+Q3ZCM7+P07437+Q13885+Q9BVA1+Q9BUF5+A6NNZ2); assay: Binding affinity to beta-tubulin in human DOHH-2 cells measured after 6 hrs by pull-down assay; format: cell-based; settings: DDE = dose-dependent effect
[13] = system: DOHH-2; assay: Induction of apoptosis in human DOHH-2 cells assessed as increase in cleaved PARP expression at 0.5 to 8 uM measured after 24 hrs by Western blot analysis; format: functional, cell-based; settings: dose 0.5-8 µM
[14] = system: HepG2; assay: Cytotoxicity against human HepG2 cells measured after 72 hrs; format: functional, cell-based

Measured: Activity

C#Cc1cccc(C#CS(N)(=O)=O)c1
active: [1] | [2] Dde | [3] | [4] | [5] Dde | [6] Dde | [7] Dde | [8] | [9] Dde | [10] Dde | [11] Dde | [12] Dde | [13] | [14]
